Reference: US7144858B2, “Antibacterial compounds and methods for treating Gram positive bacterial infections” (The Trustees of the University of Pennsylvania, priority 2002, dated 2006)

What was measured:
[1] = Binding to Park's nucleotide, Kd by 1H NMR titration; design: species or system Bacillus subtilis; details: for Kd: 20% DMSO, NMR titration
Description: Fibril formation is observed in vitro and serves as a convenient predictor of PG complexation in vitro. […] Therefore, DMSO allows for the determination of binding affinity (Kd) values and characterization of the binding interface by Nuclear Magnetic Resonance spectroscopy (NMR).
(§1) Mass spectra were recorded on commercially available spectrometers and HPLC was performed on a commercially available columns. Both the NMR spectroscopy and transmission electron micrographs were performed in a manner known to one of ordinary skill in the art. Fmoc-amino acids and deuterated solvents were purchased from a commercial supplier. Measurement of dissociation constants was performed by NMR.
(§2) UDP-MurNAc-L-Ala-γ-D-Glu-L-Dap-D-Ala-D-Ala pentapeptide (Park's nucleotide) and UDP-MurNAc-L-Ala-γ-D-Glu-L-Dap tripeptide were isolated from Bacillus subtilis by methods known to those of ordinary skill in the art.
(§3) The resultant antibacterial compound was then titrated against a solution of the cytoplasmic PG biosynthetic precursor of lipid II, Park's nucleotide. Isothermal titration calorimetry experiments were used to measure the interaction between the antibacterial compound and Park's nucleotide. The experiments were performed at 25° C. using a titration microcalorimeter equipped with a 250 μL injection syringe and a 400 rpm stirring rate. Both the, antibacterial compound and Park's nucleotide were dissolved in water and vacuum degassed before use. Park's nucleotide (20×10 μL injection of a 5.4 mM solution) was injected into an ITC cell containing ca. 1.3 mL of the antibacterial compound (1 mM). Control experiments were performed under identical conditions by injection of the compound into water alone, Park's nucleotide into water, and the reverse experiment of titrating water into solution of the antibacterial compound or Park's nucleotide. […] The complex pattern of heat released during the titration is indicative of ligand-induced aggregation. Insoluble fibrils were produced from soluble fibril preparations by increasing the ionic strength to greater than or equal to 100 mM.

[2] = Binding to UDP-MurNAc tripeptide lipid II precursor, NMR titration; design: species or system Bacillus subtilis; details: for Complexation/binding with UDP-MurNAc-L-Ala-γ-D-Glu-L-Dap tripeptide: NMR analysis / titration
Description: as §1, §2, §3
The resultant antibacterial compound still maintains the side-chain amine cationic charge. […] These values indicate that there was a strong affinity of the antibacterial compound to the two lipid II precursors.

Gram positive bacteria = assay: Antibiotic activity; assay type: cell-based
[3] = Isothermal titration calorimetry with Park's nucleotide; assay type: binding, Bacillus subtilis; details: 25° C., water, Park's nucleotide 5.4 mM injected into 1 mM compound
Description: as §3

| Substance | Kd [1] | Decrease in binding affinity with Park's nucleotide ([1]; titration experiments) | Complexation/binding with UDP-MurNAc-L-Ala-γ-D-Glu-L-Dap tripeptide [2] | Antibiotic activity (Gram positive bacteria) | Kd ([2]; titration as in example 1, read-out: Kd value with UDP-MurNAc-L-Ala-γ-D-Glu-L-Dap tripeptide) | Complexation with Park's nucleotide by NMR ([1]; NMR analysis) | Ligand-induced aggregation during ITC titration [3] |
| --- | --- | --- | --- | --- | --- | --- | --- |
| cyclic (lactone) compound containing octapeptide -Hpg-Orn-Thr-Hpg-Hpg-Thr-Phe-Orn-, diacetylated at the ornithine residues; lacks the side-chain cationic charge [Comparative Example A, reference compound] | 1340 ± 320 µM | ~10 fold | failed to show detectable binding | markedly reduced | – | – | – |
| cyclic (lactone) compound containing octapeptide -Hpg-Orn-Thr-Hpg-Hpg-Thr-Phe-Orn-, ornithine residues modified into secondary amines with isovaleraldehyde [Example 2] | 130 ± 20 µM | – | – | – | 1280 ± 140 µM | – | – |
| cyclic (lactone) antibacterial compound containing octapeptide -Hpg-Orn-Thr-Hpg-Hpg-Thr-Phe-Orn-, diguanidylated at the ornithine residues [Example 1] | 170 µM | – | clear evidence of complexation and formation of a large, soluble aggregate | – | – | clear evidence of complexation and formation of a large, soluble aggregate | ligand-induced aggregation occurred |
